Source: patent US8338472B2, “Hexahydrocyclopentyl[F]indazole carboxamides and derivatives thereof as selective glucocorticoid receptor modulators” (Merck Sharp & Dohme Corp., priority 2008, dated 2012)
Like-named read-outs stand apart in the source and are kept apart here.

How the values were obtained:
human GR = target: T1, human GR (Homo sapiens, UniProt P04150); test: Transrepression Assay (GITAR), TNFα-β-lactamase reporter gene in U937 cells; type: cell-based; details: for GITAR Greater than by GRAMMER % SEP: GITAR Emax minus GRAMMER Emax; for EC50: inflection point, U937 cells, read-out: Transrepression U937 Cells GITAR IP
T1 construct: U937 cells contain an endogenous glucocorticoid receptor (GR); endogenous in cells; host or cells: U937 cells stably transfected with the TNF-alpha promoter/beta-lactamase reporter
T1 sequence (P04150 1-777): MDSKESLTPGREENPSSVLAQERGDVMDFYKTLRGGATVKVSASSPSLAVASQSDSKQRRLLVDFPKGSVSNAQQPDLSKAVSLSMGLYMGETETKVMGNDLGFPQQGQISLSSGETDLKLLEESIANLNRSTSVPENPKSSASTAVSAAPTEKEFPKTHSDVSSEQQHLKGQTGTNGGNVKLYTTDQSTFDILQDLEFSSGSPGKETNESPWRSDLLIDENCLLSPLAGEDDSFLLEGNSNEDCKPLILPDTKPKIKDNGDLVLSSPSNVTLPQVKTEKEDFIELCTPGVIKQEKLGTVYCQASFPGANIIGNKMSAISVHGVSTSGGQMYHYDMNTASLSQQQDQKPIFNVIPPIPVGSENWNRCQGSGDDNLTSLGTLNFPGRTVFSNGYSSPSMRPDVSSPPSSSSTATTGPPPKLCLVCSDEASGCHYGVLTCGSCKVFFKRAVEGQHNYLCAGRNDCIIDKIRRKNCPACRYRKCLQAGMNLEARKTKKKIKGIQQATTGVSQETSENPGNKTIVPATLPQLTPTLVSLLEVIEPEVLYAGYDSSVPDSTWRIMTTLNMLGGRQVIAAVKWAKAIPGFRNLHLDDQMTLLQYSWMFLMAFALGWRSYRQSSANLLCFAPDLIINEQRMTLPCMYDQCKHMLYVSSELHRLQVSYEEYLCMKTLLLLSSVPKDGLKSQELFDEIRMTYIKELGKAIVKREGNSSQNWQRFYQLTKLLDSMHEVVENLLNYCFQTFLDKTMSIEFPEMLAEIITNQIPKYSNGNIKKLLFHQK
Text: Transrepression Assay (GITAR)
This assay assesses the ability of test compounds to control transcription from the TNFα-β-lactamase reporter gene in U937 cells, a human myelomonocytic leukemia cell line that naturally expresses the human GR. The assay measures compound dependent-repression of the TNFa promoter linked to a reporter gene.
The human U937 cells that had been stablely transfected with the TNF-α promoter driving β-lactamase are used for this assay. U937 cells contain an endogenous glucocorticoid receptor (GR). Cells are maintained in RPMI 1640 Growth medium (Gibco Cat#11875-093) containing 25 mM HEPES, 10% FBS, 2 mM L-Glutamine, 1 mM Sodium pyruvate, 25 μg/ml Gentamicin (Gibco Cat#15710-064), 1:1000 2-Mercaptoethanol (Gibco Cat#21985-023) and 0.8 mg/ml G418 (Gibco Cat#10131-027). The density of the cells in the flask needs to be about 1×10^6−3×10^6/ml at the time of harvest. Usually, the cells are split to 1.2˜1.4×10^5/ml (1:10) 3 days prior to the assay. 50,000 cells/well are plated in 96 well black-walled plates the day of assay. Test compounds are added 10 pt/well, and cells are incubated at 37° C. for 30-45 min. For assaying compounds, first dilute 1:10 in DMSO to make 1 mM, then further dilute 1:100 in medium to make 10× stock prior to adding to the cells. Add 50 ng/ml PMA (Sigma, cat# P8139) 10 μL/well to a final concentration 5 ng/ml, and 1 μg/ml LPS (Sigma, cat# L4130) 10 μL/well to a final concentration 100 ng/ml. Incubate cells at 37° C. overnight for ˜18 hr. PMA is stored frozen as 100 μg/ml stock in DMSO. Dilute 1:10 in DMSO for a working stock of 10 μg/ml and store at −20C. For assaying, dilute the […] working stock 1:200 in medium to make a 10× solution (50 ng/ml). Store frozen LPS at 1 mg/ml in PBS, dilute 1:1000 in medium to make 10× (1 μg/ml) for the assay. Add 6× loading buffer (CCF2−AM) 20 μL/well, and incubate at room temperature for 70-90 min. […] The activity repressed by 100 nM dexamethasone alone is set as 100% activity.

[1] = target: T2, glucocorticoid receptor (GR) (Homo sapiens, UniProt P04150); test: Ligand binding assay (GR BIND), 3H-dexamethasone displacement in MDA-MB-453 cell lysate; details: GR BIND Ki, Table 1
T2 sequence (P04150 1-777): T1 sequence (P04150 1-777)

Glucocorticoid Receptor = target: T3, Glucocorticoid Receptor (Homo sapiens, UniProt P04150); test: Trans-Activation Modulation of Glucocorticoid Receptor (GRAMMER), MMTV-LUC reporter gene in A549 cells; type: cell-based; details: Table 1; for Emax: A549, A549 cells, Emax relative to 300 nM dexamethasone, read-out: Transactivation A549 Cells GRAMMER Emax; for EC50: inflection point, A549 cells, read-out: Transactivation A549 Cells GRAMMER IP
T3 construct: These cells express large amount of the GR and are very responsive to GC treatment; endogenous in cells; host or cells: A549 cells transiently transfected with the MMTV-LUC reporter
T3 sequence (P04150 1-777): T1 sequence (P04150 1-777)
Text: Trans-Activation Modulation of Glucocorticoid Receptor (GRAMMER)
This assay assesses the ability of test compounds to control transcription from the MMTV-LUC reporter gene in lung adenocarcinoma A549 cells or MDA-MB-453 cells, a human breast cancer cell line that naturally expresses the human GR. The assay measures induction of a modified MMTV LTR/promoter linked to the LUC reporter gene.
The routine transient assay consists of plating 7,000-25,000 cells/well of a white, clear-bottom 96-well plate. Alternatively, 384-well plates can be used at a cell concentration of 10,000/well. The media that the cells are plated in is “exponential growth medium” which consists of phenol red-free RPMI1640 containing 10% FBS, 4 mM L-glutamine, 20 mM HEPES, 10 ug/mL human insulin, and 20 ug/mL gentamicin. Incubator conditions are 37° C. and 5% CO2. The transfection is done in batch mode. The cells are trypsinized and counted to the right cell number in the proper amount of fresh media. It is then gently mixed with the FuGene6/DNA mix and plated onto the 96 or 384-well plate, all the wells receive 100 uL or 40 uL, respectively, of medium+lipid/DNA complex then incubated 37° C. overnight. The transfection cocktail consists of serum-free OptiMEM, FuGene6 reagent and DNA. The manufacturer's (Roche Biochemical) protocol for cocktail setup is as follows: The lipid to DNA ratio is approximately 2.5:1 and the incubation time is 20 min at room temperature. Sixteen to 24 hours after transfection, the cells are treated with dexamethasone to a final concentration of 10 nM as well as the compound of interest, such that final DMSO (vehicle) concentration is equal to or less than 1%. Each plate also contains samples that are treated with 10 nM dexamethasone alone, which is used as the 100% activity control. The cells are exposed to the compounds for 24 hours. After 24 hours, the cells are lysed by a Promega cell culture lysis buffer for approximately 30 min and then the luciferase activity in the extracts is assayed in the 96-well format luminometer. In 384-well format, Steady-Glo (Promega) or Steady-Lite (PerkinElmer) can be used by adding an equal volume of reagent to the media present in each well. Activity induced by 10 nM dexamethasone alone is set at 100% activity. Antagonist activity is calculated by determining the decrease in dexamethasone-induced activity in response to compound treatment relative to samples that were treated with dexamethasone alone. […] This transactivation assay can be performed in an agonist and antagonist mode to identify these different activities.
Activity of test compounds is calculated as the Emax relative to the activity obtained with 300 nM dexamethasone. Activity of test compounds is calculated as the Emax relative to the activity obtained with 300 nM DEX. […] The action of compounds is also tested in an antagonist mode (Anti-GRAMMER) in which the cells are treated with medium containing an agonist such as 10 nM DEX and the ability to agents to inhibit the activation by an agonist is measured.

[2] = U-937, U937 cells, activity repressed by 100 nM dexamethasone = 100%, Table 1, read-out: Transrepression U937 Cells GITAR Emax
[3] = U-937, text statement, 100 nM dexamethasone = 100%, read-out: maximal activity in the transrepression assay (GITAR)

Structure (SMILES)	GITAR Greater than by GRAMMER % SEP (human GR; Table 1) [%]	Emax (human GR; [2]) [%]	Emax (human GR; [3]) [%]	EC50 (human GR; Table 1) [nM]	Ki [1] [nM]	Emax (Glucocorticoid Receptor) [%]	EC50 (Glucocorticoid Receptor) [nM]
CC(O)CN(CC(C)O)C(=O)[C@H]1CCC2=Cc3c(cnn3-c3ccc(F)cc3)C[C@@]21C (stereo partly drawn) [Compound 10, (4αR,5S)-1-(4-fluorophenyl)-N,N-bis(2-hydroxypropyl)-4α-methyl-1,4,4α,5,6,7-hexahydrocyclopenta[f]indazole-5-carboxamide]	19.0	59.8	> 5	384	1.8	40.8	326
CC(C)CN(CC(C)C)C(=O)[C@H]1CCC2=Cc3c(cnn3-c3ccc(F)cc3)C[C@@]21C [Compound 11, (4αR,5S)-1-(4-fluorophenyl)-N,N-diisobutyl-4α-methyl-1,4,4α,5,6,7-hexahydrocyclopenta[f]indazole-5-carboxamide]	22.2	67.5	> 5	328	1.7	45.3	177
CCCCN(CC)C(=O)[C@H]1CCC2=Cc3c(cnn3-c3ccc(F)cc3)C[C@@]21C [Compound 12, (4αR,5S)-N-butyl-N-ethyl-1-(4-fluorophenyl)-4α-methyl-1,4 ,4α,5,6,7-hexahydrocyclopenta[f]indazole-5-carboxamide]	26.6	56.3	> 5	662	1.4	29.7	376
C[C@]12Cc3cnn(-c4ccc(F)cc4)c3C=C1CC[C@@H]2C(=O)N(CCC#N)CCC#N [Compound 13, (4αR,5S)-N,N-bis(2-cyanoethyl)-1-(4-fluorophenyl)-4α-methyl-1,4,4α,5,6,7-hexahydrocyclopenta[f]indazole-5-carboxamide]	13.6	28	> 5	1080	35.3	14.4	519
C[C@]12Cc3cnn(-c4ccc(F)cc4)c3C=C1CC[C@@H]2C(=O)N(CCC#N)C1CC1 [Compound 14, (4αR,5S)-N-(2-cyanoethyl)-N-cyclopropyl-1-(4-fluorophenyl)-4α-methyl-1,4,4α,5,6,7-hexahydrocyclopenta[f]indazole-5-carboxamide]	27.1	38.3	> 5	1590	10.8	11.2	1420
C[C@]12Cc3cnn(-c4ccc(F)cc4)c3C=C1CC[C@@H]2C(=O)N1CCCC(=O)CC1 [Compound 15, 1-{[(4αR,5S)-1-(4-fluorophenyl)-4α-methyl-1,4,4α,5,6,7-hexahydrocyclopenta[f]indazol-5-yl]carbonyl}azepan-4-one]	7.2	12.5	> 5	3410	120	5.3	1540

The remaining lines, values ahead:

GITAR Greater than by GRAMMER % SEP (human GR; Table 1) [%]	Emax (human GR; [2]) [%]	Emax (human GR; [3]) [%]	EC50 (human GR; Table 1) [nM]	Ki [1] [nM]	Emax (Glucocorticoid Receptor) [%]	EC50 (Glucocorticoid Receptor) [nM]	Structure (SMILES)
28.1	61.8	> 5	376	2.8	33.8	184	CCCN(C(=O)[C@H]1CCC2=Cc3c(cnn3-c3ccc(F)cc3)C[C@@]21C)C(C)CC (stereo partly drawn) [Compound 16, (4αR,5S)-N-(sec-butyl)-1-(4-fluorophenyl)-4α-methyl-N-propyl-1,4,4α,5,6,7-hexahydrocyclopenta[f]indazole-5-carboxamide]
2.3	11.8	> 5	1830	43.6	9.4	526	CC1CN(C(=O)[C@H]2CCC3=Cc4c(cnn4-c4ccc(F)cc4)C[C@@]32C)CC(C)O1 (stereo partly drawn) [Compound 17, (4αR,5S)-5-[(2,6-dimethylmorpholin-4-yl)carbonyl]-1-(4-fluorophenyl)-4α-methyl-1,4,4α,5,6,7-hexahydrocyclopenta[f]indazole]
6.2	10.2	> 5	4260	4.5	4	1690	C[C@]12Cc3cnn(-c4ccc(F)cc4)c3C=C1CC[C@@H]2C(=O)N1CCCC1CCc1ccccc1 (stereo partly drawn) [Compound 19, (4αR,5S)-1-(4-fluorophenyl)-4α-methyl-5-{[2-(2-phenylethyl)pyrrolidin-1-yl]carbonyl}-1,4,4α,5,6,7-hexahydrocyclopenta[f]indazole]
